These results are taken from patent US12458732B2, “Porous composites with high-aspect ratio crystals” (W. L. Gore & Associates, Inc., priority 2013, dated 2025).

Data set [1] can be described thus: ethylene oxide sterilization of coated ePTFE substrates, SEM visualization. The class given is physicochemical. The conditions noted are these: conditioning about 24 hr, EtO dwell about 22 hr, 64° C., aeration about 12 hrs; samples of Examples 6 and 7. Here is the method:
Representative samples of Examples 6 and 7 were exposed to ethylene oxide sterilization, under conditions of conditioning for about 24 hr, an EtO gas dwell time of about 22 hr, a set point temperature of 64° C., and an aeration time of about 12 hrs. The samples were then visualized with SEM.

Data set [2] concerns carotid artery endothelial layer. Briefly: ex vivo transfer of drug crystals from an ePTFE substrate to a vascular tissue. Details: species or system swine. Conditions: 60 sec compression at 5.4 atm. Here is the method:
Substrates of ePTFE of Examples 1 and 2 were coated with paclitaxel (10 mg/ml) or paclitaxel/urea (1:1 mass ratio; 10 mg/ml paclitaxel) according to Example 4. The substrates were examined under SEM to confirm the presence of high aspect paclitaxel crystal habits embedded and oriented in the ePTFE microstructure.
A freshly harvested carotid artery from >2 yr old swine (Animal Technologies Inc., Tyler TX) was slit axially using a scalpel blade, cut lengthwise into portions, everted, and the portions adhered to a glass microscope slide using cyanoacrylate adhesive (Loctite), luminal aspect up. Tissue portions were kept wet using phosphate-buffered saline until use.
The glass microscope slide containing the artery portion was gently placed, tissue side down, upon the coated ePTFE substrate, to expose the endothelial layer to the paclitaxel crystals. The endothelial layer was compressed at about 5.4 atm against the coated ePTFE substrate for 60 sec. The glass microscope slide containing the artery portion was then examined under SEM.

`CC(=O)O[C@H]1C(=O)[C@@]2(C)[C@H]([C@H](OC(=O)c3ccccc3)[C@]3(O)C[C@H](OC(=O)[C@H](O)[C@@H](NC(=O)c4ccccc4)c4ccccc4)C(C)=C1C3(C)C)[C@]1(OC(C)=O)CO[C@@H]1C[C@@H]2O` [paclitaxel]: in data set [1], the “acicular habits, geometry, penetration into ePTFE and angles of projection after ethylene oxide sterilization” value was “unaffected”. The “high aspect ratio of the crystals after compression (mechanical stability and strength)” value in data set [2] is “intact”.
